Experimental data from US7858613B2, “Substituted benzo-condensed cycloheptanone derivatives and their use for producing drugs” (Gruenenthal GmbH, priority 2005, dated 2010).

Key:
human CB1 receptor = biological target: T1, human CB1 receptor (Homo sapiens, UniProt P21554); assay: Study on the human CB1 receptor, [3H]CP55,940 displacement on recombinant membranes; type: binding; conditions: 10 μM test substance; 1 nM [3H]CP55,940; human recombinant cell membranes
T1 construct: purchased Perkin Elmer RBHCB1M
Method: V. Functional Study on the Human CB1 Receptor
50 mM TRIS (from Fluka, Cat. No. 93349); 2.5 mM EDTA (from Fluka Cat. No. 03680); 5 mM MgCl2 (from Merck, Cat. No. 1.05833); 0.5 mg/ml BSA (from Sigma Cat. No. A-2153)
The membranes (RBHCB1M, from Perkin Elmer (human recombinant cell membranes)) were supplied in aliquots of 1 ml each in dry ice and stored at −80° C. The protein concentration of the batches was around 6 mg/ml. For the test, in each case 1 ml was thawed rapidly and diluted with 7 ml of incubation buffer (1:8). 20 μl of this dilution were used in the test. This corresponded to a protein content of approx. 15 μg in the batch.
MTP from Costar® of the “U type” (assay MTP; Cat. No. 3794) was used. The pipetting sequence is reproduced in Table 1 below.
After the pipetting operation had ended, a lid was placed on the MTP and the incubation was effected at 25° C. for 90 min.
Subsequently, the samples were removed by suction with the aid of a Brandel cell harvester (model MPXRI-96T) through a GF/B Unifilter MTP (from Packard, Cat. No. 6005177) presoftened with 0.05% PEI. The samples were washed twice with 200 ml of ice-cooled incubation buffer per 96-well MTP. Thereafter, the plate was dried in a drying cabinet +60° C. for 1 h. […] After a wait time of 1 h, the plate was analyzed on a “Trilux” from Wallac.

human CB2 receptor = biological target: T2, human CB2 receptor (Homo sapiens, UniProt P34972); assay: Affinity for cannabinoid receptor CB2, [3H]-CP 55,940 displacement on HEK-293EBNA membranes; conditions: 10 μM test substance; 0.33 nM [3H]-CP 55,940; percent inhibition of specific binding
T2 construct: expressed in transfected cells; host or cells: HEK-293EBNA cells (membranes)
Description: VI. Determination of the Affinity for the Cannabinoid Receptor CB2 (CB2 Receptor):
To determine the affinity of the inventive compounds for the cannabinoid receptor, membranes from human recombinant HEK-293EBNA cells were used, which had been transfected stably with the human CB2 receptor. The radioligand used was tritium-labeled 5-(1,1-dimethylheptyl)-2-(5-hydroxypropyl)cyclohexyl)-1-alpha,2-beta,5-alpha)phenol ([3]H—CP 55,940 with 103.4 Ci/mmol, 1 mCi/ml). The determination was effected in a test buffer composed of 50 mM Tris-HCl, 2.5 mM EDTA, 5 mM MgCl2 and 1.0 mg/ml of fatty acid-free BSA. The test substances were each dissolved in DMSO.
The affinity of the inventive compounds for the CB2 receptor is determined by their ability to displace [3]H—CP 55,940 from CB2 receptors in membranes from HEK-293EBNA cells. To this end, in each case 8 μg of the membranes (20 μl of a solution from membranes in a concentration of 400 μg/ml) are incubated in wells on a microtiter plate with a 0.33 nM solution of ^[3]H-CP […] (120 Ci/mmol) in a total volume of test buffer of 200 μl at 30° C. for 90 minutes.
Subsequently, either the test substances or WIN 55212-2 to determine the unspecific binding, in each case dissolved in DMSO, are added to the wells so as to result in each case in a concentration of the corresponding substances of 10 μM.
Incubation at 30° C. is continued for a further 40 minutes. The binding reaction was ended by rapid filtration through GF/C filter paper which had been treated with 0.05% PEI using a Brandel cell harvester with 96 wells. The filters are washed nine times with 0.5 ml of ice-cooled washing buffer ([…] Tris-HCl, 5 mM MgCl2, 2.5 mM EDTA, 2% BSA, pH 7.4), air-dried and placed in scintillation fluid, and the radioactivity is determined with the aid of a scintillation counter.
The percentage displacement of the radioactive ligand ^[3]H-CP 55,940 from its binding to the CB2 receptor is reported as percent inhibition of the specific binding.

T1 sequence (P21554 whole entry): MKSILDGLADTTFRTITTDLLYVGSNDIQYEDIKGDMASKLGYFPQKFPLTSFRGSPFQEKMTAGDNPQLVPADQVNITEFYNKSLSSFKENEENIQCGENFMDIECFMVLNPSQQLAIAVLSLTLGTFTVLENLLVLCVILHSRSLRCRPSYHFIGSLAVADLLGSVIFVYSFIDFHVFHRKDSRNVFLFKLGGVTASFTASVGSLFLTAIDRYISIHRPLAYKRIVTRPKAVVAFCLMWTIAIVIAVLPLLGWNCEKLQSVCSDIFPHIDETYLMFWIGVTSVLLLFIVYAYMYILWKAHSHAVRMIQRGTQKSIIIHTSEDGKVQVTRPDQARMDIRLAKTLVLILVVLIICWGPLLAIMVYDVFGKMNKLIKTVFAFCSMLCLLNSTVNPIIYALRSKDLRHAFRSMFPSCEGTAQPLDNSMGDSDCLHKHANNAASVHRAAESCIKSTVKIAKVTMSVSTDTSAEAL
T2 sequence (P34972 whole entry): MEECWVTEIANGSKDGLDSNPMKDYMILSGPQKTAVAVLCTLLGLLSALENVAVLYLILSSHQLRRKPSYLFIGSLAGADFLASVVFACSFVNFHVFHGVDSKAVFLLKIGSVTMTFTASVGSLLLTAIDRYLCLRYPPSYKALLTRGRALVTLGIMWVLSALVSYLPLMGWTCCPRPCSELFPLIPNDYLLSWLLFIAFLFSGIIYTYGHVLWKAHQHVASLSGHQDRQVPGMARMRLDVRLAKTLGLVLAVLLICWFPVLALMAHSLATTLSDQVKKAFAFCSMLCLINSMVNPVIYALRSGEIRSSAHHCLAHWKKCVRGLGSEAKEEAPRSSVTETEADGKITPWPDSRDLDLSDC

inhibition at 10 µM (human CB1 receptor) [%]	inhibition at 10 µM (human CB2 receptor) [%]	SMILES
47	76.2	O=C(NC1CCCCC1)OCC1(COC(=O)NC2CCCCC2)CCCc2ccccc2C1=O [Example Compound 8, Cyclohexylcarbamic acid 6-(cyclohexylcarbamoyloxymethyl)-5-oxo-6,7,8,9-tetrahydro-5H-benzocyclohepten-6-ylmethyl ester]
42	74.6	O=C(Nc1ccccc1)OCC1(COC(=O)Nc2ccccc2)CCSc2ccccc2C1=O [Example Compound 2, Phenylcarbamic acid 4-(phenylcarbamoyloxymethyl)-5-oxo-2,3,4,5-tetrahydro-benzo[b]thiepin-4-ylmethyl ester]
